Source: US20030170643A1, “Regulation of apoB treatment and drug screening for cardiovascular and metabolic disorders or syndromes” (priority 1999, published 2003)

Legend:
Assay type in all cases: cell-based
[1] = system: rat hepatoma cells; test: Pulse-chase recovery of [35S]-apoB100 (apoB100 degradation) in rat hepatoma cells; conditions: for effect on DHA-stimulated apoB100 degradation: rat hepatoma cells or primary hepatocytes, co-treatment with DHA/BSA
Experimental: (§1) FIG. 13 illustrates that either an iron chelator (DFX) or lipid antioxidants block DHA-stimulated apoB degradation and reactive oxygen species (ROS) production. Rat hepatoma cells were plated in culture wells and pre-incubated in media containing either DHA or DHA with one of the indicated compounds. Radiolabeled methionine/cysteine was added to the culture media for 15 minutes, after which time, the culture media were replaced by fresh media identical in composition except that radiolabeled methionine/cysteine were replaced by unlabeled methionone/cysteine. The recovery of labeled apoB100 ([^35S]-apoB100) from the media and cell lysate was determined at the indicated time points (with time 0 being the point when the fresh media were applied to the cells) by immunoprecipitating apoB species with a rabbit polyclonal antibody to rat apoB, resuspending the immunoprecipitates, combining aliquots from cell lysate and media samples from each well, resolving the protein contents of the combined immunoprecipitates by SDS-polyacrylamide gel electrophoresis (SDS-PAGE), and exposing the resultant gels to X-ray film in order to visualize the labeled apoB bands. In panel A are shown representative signals for radiolabeled apoB100 in each of the treatment conditions. […] For each treatment, there were at least 2 wells/treatment for each time point and the entire experiment repeated. The signal intensities of the apoB100 bands were quantified by densitometry and the mean relative recoveries (the % of the 15 minute, or initial, value still remaining at 120 minutes) ±SEM are shown in panel B. Note that the visual impressions observable in panel A are confirmed by the quantitative analysis; i.e., there is a substantial increase in labeled apoB100 recovery with any of the co-treatments. In panel C, the ROS content of the cell lysates at the end of the experiment was measured by the standard TBARS assay (Stocks et al., 1974, Clin Sci Mol Med 47,215-222). Note that compared to control (BSA), DHA induced a large increase in TBARS, as expected because of its high content on unsaturated bonds.
FIG. 14 illustrates that DHA, but not saturated MA, induces apoB100 degradation in rat hepatoma cells. An experiment similar to the one described in FIG. 13 was performed, with the following changes: A) The immunoprecipitates from cell lysate and media samples were not combined, but separately analyzed. B) In addition to the 15 and 120 minute time points, apoB recovery was determined at 30 minutes. C) In addition to DHA, the effects of the fatty acid myristic (MA) were also tested because it has no unsaturated bonds and should not give rise to ROS.
FIG. 15 illustrates that AA stimulates apoB100 degradation and increases ROS. […] Note in the upper panel that the combined recovery (from two separate wells/time point) of radiolabeled apoB100 decreased from 15 to 120 minutes, indicating significant apoB100 degradation had occurred in the presence of AA. […] In addition to being a source of ROS, AA can also be converted by cyclooxygenase (COX) to bioactive prostaglandin compounds. We therefore repeated the experiment with AA but with co-treatment by the COX inhibitor aspirin.
To further explore the underlying mechanisms, rat hepatoma cells or primary hepatocytes were incubated with the Ω-3 fatty acid DHA complexed to BSA, while blocking candidate cellular mediators. […] There was, however, strong evidence against a role for calcium. Chelation of intracellular Ca^++ with BAPTA-AM, pharmacologic blockage of Ca^++ channels, depletion of the ER-calcium pool, and increasing Ca++ influx with an ionophore each had no effect. Because EGTA also chelates Fe^+++, and DHA is subject to Fe^+++-dependent peroxidation, the role of this lipid modification was examined. As shown in FIG. 13A and 13B, Desferroxamine (DFX), a chelator of Fe^+++, the antioxidant vitamin E (Vit E), and the synthetic antioxidant BHT, each inhibited DHA-stimulated apoB100 degradation by ˜60%.

[2] = system: rat hepatoma cells; test: TBARS assay of ROS in cell lysates of rat hepatoma cells; conditions: fatty acid alone
Experimental: as §1, with “bonds. […] FIG. 15 illustrates that AA stimulates apoB100 degradation and increases ROS. […] Note in the upper panel that the combined recovery (from two separate wells/time point) of radiolabeled apoB100 decreased from 15 to 120 minutes, indicating significant apoB100 degradation had occurred in the presence of AA. […] In addition to being a source of ROS, AA can also be converted by cyclooxygenase (COX) to bioactive prostaglandin compounds. We therefore repeated the experiment with AA but with co-treatment by the COX inhibitor aspirin.” for “bonds.”

[3] = system: rat primary hepatocytes; test: Secretion of newly synthesized ([35S]methionine-labeled) VLDL-apoproteins by rat primary hepatocytes incubated with fatty acid/BSA complexes; conditions: fatty acid/BSA complexes (0.8 mM FA), VLDL fraction
Experimental: Cells were plated at a density of 2×10^6 cells/ml on 60-mm culture dishes (previously coated with poly-D-lysine) in modified M199 medium (M199, 1% fetal bovine serum [FBS], 1 mM nicotinamide, 0.1 nM insulin, 3 mg/ml choline, 1.1% L-glutamine, 1% BSA). After a four-hour attachment period, the medium was changed (modified M199 identical to the above except BSA was omitted and the concentration of FBS was raised to 10%). The next morning, cells were washed in serum-free medium three times, the experimental media added, and the cells incubated at 37° C. for 4-6 hours. The experimental medium consisted of serum-free RPMI containing the appropriate isotopes (see below) and fatty acids (FA) present at a final concentration of 0.8 mM complexed to BSA (FA:BSA molar ratio=5:1). The fatty acids used were oleic (OA), EPA, and DHA. Control medium was identical, except that BSA (0.16 mM) without fatty acids was present. For metabolic labeling of proteins, [^35S]methionine (70 uCi/ml) was included in the experimental media.
Following the 4-6 hour incubation period, the cell monolayer was washed, then solubilized in 0.1 M NaOH, and the cell protein determined by the Lowry method (Lowry, O. H., Rosebrough, N. J., Farr, A. L., and Randall, R. J. (1951) J Biol Chem 193, 265-75). Each 60 mm dish contained approximately 1-1.5 mg of cell protein. The secreted apoproteins were isolated from the medium either by ultracentrifugation or immunoprecipitation. To isolate the d<1.006 (VLDL) and 1.006<d<1.063 (IDL and LDL) g/ml density classes by centrifugation, sequential 20 hour runs at 48,000 rpm in a 50 Ti Beckman rotor at 4° C. were performed. After the first run at d=1.006, the upper VLDL layer was harvested and the density of the infranatant adjusted to 1.066 g/ml with solid KBr. After being overlaid with a KBr solution of density 1.063, the adjusted infranatant was re-centrifuged as before to isolate the IDL and LDL fractions. In some experiments, the HDL fraction (1.063<d<1.21) was isolated by sequential density centrifugation. Lipoprotein fractions were then dialyzed against 0.9% NaCl containing 10 mM unlabeled methionine, 0.2 mM PMSF, and 2 mM EDTA. Dialyzed lipoproteins were delipidated using 9 volumes of 100% isopropanol. Apoproteins were then collected by centrifugation in a Sorval HB-4 rotor at 10,000 rpm and 4° C. for 20 min, and dissolved in buffer (0.01 M phosphate, pH 7,1 % SDS, 10% glycerol), in preparation for electrophoresis.
To immunoprecipitate apoB or apoE from unfractionated conditioned medium, monospecific rabbit antiserum to rat apoB or apoE was used. Briefly, an aliquot of the medium was mixed with an equal volume of diluted antiserum (1:100 in PBS and 1% BSA) and incubated overnight at 4° C. Staph A was added in the form of immunoprecipitin, and the resultant precipitate containing the immune complexes was washed extensively, the staph A cells removed, and the isolated apoprotein dissolved in gel sample buffer (0.0625M tris/Cl, pH 6.8, 20% glycerol, 2% SDS). Electrophoretic separation of apoVLDL, apoIDL/LDL, and immunoprecipitates was accomplished using 3.5% acrylamide-18% glycerol gels as described (Maguire, G. F., Lee, M., and Connelly, P. W. (1989) J Lipid Res 30, 757-61). An aliquot of each sample was taken for scintillation counting, so that total radioactivity applied to each lane could be determined. Also, protein size standards were included in each gel.
After electrophoresis, the gels were stained, fixed, soaked in Enhance fluor solution, and dried following protocols supplied by the manufacturer. Dried gels were then exposed to X-ray film at −70° C. and signals on the resulting fluorograms were typically quantified by densitometry or phosphorimaging. Using the total radioactivity applied to each lane of the gel and the relative signal intensity of each band in that lane, the radioactivity associated with each apoprotein species was calculated. […]

[4] = system: Rat McA hepatoma cells; test: Proteasome inhibition and apoB degradation in rat McA hepatoma cells
Experimental: FIG. 8 illustrates that EPA stimulates apoB degradation even when proteasomes are inhibited. Panel A: Rat McA hepatoma cells were incubated at 37° C. for 4 hr in [^35S]methionine-containing medium supplemented with either BSA (C) or EPA/BSA complexes (EPA) in the absence (EPA) or presence (EPA+LAC) of the proteasome inhibitor, lactacystin. Samples of cell lysates and conditioned media were subjected to immunoprecipitation analysis with anti-apoB antiserum, followed by SDS-PAGE and fluorography. In three separate experiments, the effect of lactacystin on EPA-induced degradation averaged less than 20%. Panel B: Rat McA hepatoma cells were incubated at 37° C. for 4 hr in [^355]methionine-containing medium supplemented with either BSA (Control) or BSA and lactacystin (LAC). After immunoprecipitation/SDS-PAGE analysis of the cell lysate and media samples, the resulting fluorograms were analyzed by phosphorimager and the recovery of total (cell+medium) apoB100 was quantified. The results shown (mean total recovery relative to control, ±SE) are based on 8 independent determinations. * indicates P<0.001, LAC vs. control.
To determine whether the proteasome mediated Ω-3 fatty acid-induced apoB degradation, rat hepatoma cells were incubated at 37° C. for 4 hr in [^35S]methionine-containing medium supplemented with either BSA or EPA/BSA complexes in the absence or presence of the proteasome inhibitor, lactacystin ([…]; purchased from the laboratory of Dr. E. J. Corey, Harvard University). Samples of cell lysates and conditioned media were subjected to immunoprecipitation analysis with anti-apoB antiserum, followed by SDS-PAGE and fluorography. To determine whether Ω-3 fatty acids targeted apoB to lysosomal degradation, a similar experiment was performed substituting ammonium chloride (40 mM) for lactacystin.

**Q.** `Cc1cc(C(C)(C)C)c(O)c(C(C)(C)C)c1` [BHT, butylhydroxytoluene] was tested. Which “inhibition of DHA-stimulated apoB100 degradation” value ([1]; co-treatment with DHA, FIG. 13A and 13B) did it give?
**A.** ~60%

**Q.** Which “effect on DHA-stimulated apoB100 degradation” value [1] does the source give for `O=C(O)CN(CCOCCOCCN(CC(=O)O)CC(=O)O)CC(=O)O` [EGTA] here?
**A.** blocked

**Q.** For `CCCCC/C=C\C/C=C\C/C=C\C/C=C\CCCC(=O)O` [AA, arachidonic acid], which “reactive oxygen species (ROS), TBARS assay, fatty acid compared to BSA” value [2] is on record?
**A.** increases

**Q.** What about the “AA-induced apoB100 degradation with co-treatment by the COX inhibitor aspirin” value ([1]; AA plus aspirin) of the same compound?
**A.** still induced apoB100 degradation

**Q.** And the “apoB100 degradation induced by the fatty acid” value ([1]; rat hepatoma cells, 15 to 120 minutes chase)?
**A.** stimulates the degradation of apoB

**Q.** How did the “effect on DHA-stimulated apoB100 degradation” value [1] turn out when `O=C(O)CN(CC(=O)O)c1ccccc1OCCOc1ccccc1N(CC(=O)O)CC(=O)O` [BAPTA] was run?
**A.** blocked

**Q.** For `CCCCCCCCCCCCCC(=O)O` [MA, myristic acid], which “reactive oxygen species (ROS), TBARS assay, fatty acid compared to BSA” value [2] is on record?
**A.** does not increase

**Q.** `CC(=O)OCOC(=O)CN(CC(=O)OCOC(C)=O)c1ccccc1OCCOc1ccccc1N(CC(=O)OCOC(C)=O)CC(=O)OCOC(C)=O` [BAPTA-AM] was tested. Which “effect on DHA-stimulated apoB100 degradation” value [1] did it give?
**A.** no effect

**Q.** `CC/C=C\C/C=C\C/C=C\C/C=C\C/C=C\CCCC(=O)O` [EPA, eicosapentaenoic acid] was tested. Which “secretion of newly synthesized VLDL-ApoB48, percentage of secretion observed with BSA alone” value [3] did it give?
**A.** 45 ± 3 percentage

**Q.** And the “secretion of newly synthesized VLDL-ApoB100, percentage of secretion observed with BSA alone” value [3]?
**A.** 25 ± 2 percentage

**Q.** And the “secretion of newly synthesized VLDL-ApoE, percentage of secretion observed with BSA alone” value [3]?
**A.** 45 ± 1 percentage

**Q.** How did the “inhibition of EPA-induced apoB degradation” value ([4]; FIG. 8 Panel A) turn out when `CC(=O)N[C@@H](CSC(=O)[C@]1([C@@H](O)C(C)C)NC(=O)[C@H](C)[C@@H]1O)C(=O)O` [lactacystin] was run?
**A.** little if any inhibition

**Q.** What about the “apoB100 recovery in the absence of Ω-3 fatty acids” value ([4]; FIG. 8 Panel B, total (cell+medium), P<0.001 vs control) of the same compound?
**A.** increased

**Q.** And the “effect of lactacystin on EPA-induced apoB degradation” value ([4]; average of three separate experiments, 4 hr)?
**A.** less than 20%

**Q.** Which “effect on DHA-stimulated apoB100 degradation” value [1] does the source give for `CC(=O)Oc1ccccc1C(=O)O` [aspirin] here?
**A.** no effect
